In patent US20260206761A1, “HETEROARYL-TRIAZOLE COMPOUNDS AS PESTICIDES” (Bayer Aktiengesellschaft, priority 2019, published 2026) one finds pest or weed control and mortality data, which are given here for 10 compounds.

Holding throughout (format): in vivo
Experiment [1] has as its system adult cat fleas (Ctenocephalides felis). Briefly: Ctenocephalides felis in-vitro contact test, adult cat flea. To be noted: application rate 5 μg/cm^2 (=500 g/ha), after 48 hours, read-out: activity (efficacy: fleas dead or moribund). The method in brief: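 Acetone solutions of compound coated onto inner walls of glass tubes (900 ppm giving […]); after drying, 5-10 adult Ctenocephalides felis added and held at room temperature. At 48 h, fleas placed on a 45-50° C heating plate; those unable to climb away scored dead or moribund, expressed as % efficacy.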

Experiment [2] deals with green peach aphid (Myzus persicae). Briefly: Myzus persicae spray test. To be noted: 120 h, after 5 days; for mortality at 100 g/ha: application rate 100 g/ha; for mortality at 500 g/ha: application rate 500 g/ha. In a few lines: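 Chinese cabbage leaf disks carrying all instars of M. persicae sprayed with compound in acetone/DMF, diluted in water with 1000 ppm alkylarylpolyglycol ether emulsifier. Percent mortality scored after 5 days (100% = all aphids killed).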

The test system of experiment [3] is brown planthopper (Nilaparvata lugens). Put plainly: Nilaparvata lugens spray test. To be noted: 96 h, after 4 days; for mortality at 500 g/ha: application rate 500 g/ha. The protocol:
Nilaparvata lugens—Spray Test
Solvent: 78.0 parts by weight of acetone • • 1.5 parts by weight of dimethylformamide
Emulsifier: alkylarylpolyglycol ether
To produce a suitable preparation of active compound, 1 part by weight of active compound is mixed with the stated amount of solvents and is diluted with water, containing an emulsifier concentration of 1000 ppm, to the desired concentration. Further test concentrations are prepared by dilution with emulsifier containing water.
Rice plants (Oryza sativa) are sprayed with a preparation of the active ingredient of the desired concentration and the plants are infested with the brown planthopper (Nilaparvata lugens).
After 4 days mortality in % is determined. 100% means all planthoppers have been killed and 0% means none of the planthoppers have been killed.

Experiment [4] deals with adult engorged female ticks (Rhipicephalus microplus). Put plainly: Rhipicephalus (Boophilus) microplus injection test. To be noted: 168 h, egg deposition after 7 days, read-out: activity (efficacy: infertile eggs); for pest or weed control at 0.02 mg: application rate 20 μg/animal; for pest or weed control at 4 pg: application rate 4 pg/animal. In a few lines:
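Five adult engorged female ticks injected into the abdomen with 1 μL compound solution in DMSO, then held in a climate chamber. Fertile egg deposition assessed after 7 days, unclear eggs kept until hatching (about 42 days); efficacy 100% = all eggs infertile, 0% = all fertile.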

The test system of experiment [5] is adult unfed cat fleas (Ctenocephalides felis). Put plainly: Ctenocephalides felis oral test. To be noted: 48 h, read-out: activity (mortality). The method in brief: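 About 20 adult unfed fleas fed through parafilm on cattle blood containing compound (DMSO stock diluted in blood), blood held at 37 °C and fleas at room temperature. Mortality (%) scored after 2 days.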

Experiment [6] relates to Aedes aegypti strain MONHEIM. Put plainly: Aedes aegypti test (AEDSAE surface treatment & contact assay). To be noted: 24 hours after contact, read-out: efficacy (mortality); for mortality at 20 mg/m2: surface concentration 20 mg/m^2, exposure 30 minutes; for mortality at 4 mg/m2: surface concentration 4 mg/m^2, exposure 30 minutes. In a few lines:
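Compound in acetone (2 mg/ml) with 2000 ppm RME pipetted onto glazed tile and dried; adult Aedes aegypti MONHEIM exposed 30 min. Percent mortality scored 24 h after contact.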

In experiment [7] the test system is Rhipicephalus microplus larvae (strain Parkhurst, resistant against synthetic pyrethroids). Briefly: Rhipicephalus (Boophilus) microplus in-vitro contact test, larval cattle tick. Particulars: after 48 hours, read-out: activity (efficacy: larvae dead or moribund); for pest or weed control at 100 g/ha: application rate 1 pg/cm^2 (=100 g/ha); for pest or weed control at 500 g/ha: application rate 5 pg/cm^2 (=500 g/ha). The method in brief:
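Acetone solutions coated onto inner walls of glass tubes by rotation (900 ppm giving 5 μg/cm^2); after evaporation, 20-50 larvae added per tube and held at 27° C., 85% relative humidity. Efficacy read after 48 h from negative geotactic behaviour; 100% = all larvae dead or moribund.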

Experiment [8] concerns fall armyworm larvae (Spodoptera frugiperda). Put plainly: Spodoptera frugiperda spray test. To be noted: 168 h, read-out: activity (mortality). The method in brief: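 Compound in acetone/DMF, diluted in water with 1000 ppm alkylarylpolyglycol ether emulsifier, sprayed on maize leaf sections. Dried leaves infested with fall armyworm larvae; % mortality after 7 days (100% = all killed, 0% = none).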

Experiment [9] has as its system larvae of the southern green stink bug (Nezara viridula). Put plainly: Nezara viridula spray test. Particulars: 96 h, after 4 days; for mortality at 500 g/ha: application rate 500 g/ha; for mortality at 100 g/ha: application rate 100 g/ha. The method in brief: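 Compound in acetone/dimethylformamide, diluted in water with 1000 ppm alkylarylpolyglycol ether emulsifier, sprayed onto barley plants carrying stink bug larvae. Mortality (%) scored after 4 days, 100% meaning all insects killed.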

Experiment [10] has as its system larvae of the banded cucumber beetle (Diabrotica balteata). Put plainly: Diabrotica balteata spray test. Particulars: 168 h, after 7 days, read-out: activity (efficacy: seedlings grown); for pest or weed control at 500 g/ha: application rate 500 g/ha (=160 pg/well); for pest or weed control at 100 g/ha: application rate 100 g/ha (=32 pg/well). The method in brief: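 Wheat seedlings, germinated 1 day on agar (5 seeds/well), sprayed with active compound in acetone/DMF diluted in water containing 1000 ppm emulsifier, then infested with 10-20 D. balteata larvae. Efficacy (%) scored after 7 days: 100% = seedlings grown as untreated uninfested control, 0% = no seedlings grown.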

In experiment [11] the test system is green peach aphid (Myzus persicae). Briefly: Myzus persicae oral test. To be noted: 120 h, application rate 4 ppm, after 5 days. The method in brief: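 Acetone stock (1 pbw compound/100 pbw solvent) diluted in water; mixed with sugar-supplemented IPL41 medium; parafilm-sealed; mixed aphid population sucks through film; mortality % read at 5 d.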
The subject of experiment [12] is Anopheles funestus strain FUMOZ-R. Put plainly: Anopheles funestus test (ANPHFU surface treatment & contact assay). To be noted: 24 hours after contact, read-out: efficacy (mortality). Here is the method:
Anopheles funestus Test (ANPHFU Surface Treatment & Contact Assay)
Solvent: Aceton+2000 ppm rapeseed oil methyl ester (RME)
In order to produce a sufficient, active ingredient containing solution it is necessary to solve the test compound in the solvent-mix (acetone at 2 mg/ml/RME 2000 ppm). This solution is pipetted onto a glazed tile and after evaporation of the acetone, adult mosquitoes of the species Anopheles funestus strain FUMOZ-R (Hunt et al., Med. Vet. Entomol. 2005 September; 19(3): 271-275) are placed onto the dried surface. The exposure time is 30 minutes. Mortality in percent (%) is determined 24 hours after contact of the insects to the treated surface. 100% mortality means that all tested insects are dead, whereas 0% means that no insect died.

In experiment [13] the test system is adult brown dog ticks (Rhipicephalus sanguineus). Put plainly: Rhipicephalus sanguineus in-vitro contact test, adult brown dog ticks. Particulars: after 48 hours, read-out: activity (efficacy: ticks dead or moribund). In a few lines:
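Acetone solution (900 ppm giving 5 μg/cm²) coated on inner walls of glass tubes; after drying, 5-10 adult ticks added and held at room temperature 48 h. Ticks then placed on 45-50 °C plate ≤5 min; those unable to climb away scored dead/moribund, efficacy as % affected.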

For `CCc1nc([C@H](C)NC(=O)c2cc(Cl)cc(S(C)(=O)=O)c2)n(-c2ccc(C#N)cn2)n1` [I-3], in [1], the pest or weed control at 5 µg/cm2 amounted to 90%. For the same compound, the mortality at 100 g/ha in experiment [2] and in [8] was 100% each time. Besides, the mortality at 500 g/ha in experiment [2], in experiment [3], in experiment [8] and in [9] was 100% in each case. In addition, the pest or weed control at 0.02 mg in experiment [4] turned out to be 100%. For the same compound, the mortality at 100 ppm in [5] was 100%. In addition, in [6], the mortality at 20 mg/m2 was in the range of 80 to 100%. In addition, the pest or weed control at 100 g/ha in [7] worked out at 100%. For the same compound, the pest or weed control at 500 g/ha in experiment [7] and in experiment [10] was 100% throughout. Besides, the mortality at 4 ppm in [11] turned out to be 100%.
Consider `COc1nc([C@H](C)NC(=O)c2cc(Cl)cc(S(C)(=O)=O)c2)n(-c2ccc(C#N)cn2)n1` [I-7], for which, in experiment [1], the pest or weed control at 5 µg/cm2 amounted to 100%. Besides, the mortality at 100 g/ha in [2], in [8] and in experiment [9] was 100% each time. Further, the mortality at 500 g/ha is 90% in [2], 90% in experiment [3], 100% in [8] and 100% in experiment [9]. In experiment [4], the pest or weed control at 4 pg was 100%. For the same compound, the pest or weed control at 0.02 mg in [4] is 100%. For the same compound, the mortality at 100 ppm in [5] amounted to 100%. For the same compound, the pest or weed control at 100 g/ha in experiment [7] and in experiment [10] was 100% throughout. The pest or weed control at 500 g/ha in experiment [7] and in experiment [10] was 100% each time. In experiment [11], this compound returned a mortality at 4 ppm of 100%.
As to `CC(NC(=O)c1cc(C(F)(F)F)cc(S(C)(=O)=O)c1)c1nc(Br)nn1-c1ncccn1` (stereo not shown) [I-38], the mortality at 100 g/ha in experiment [2] is 90%; in experiment [3] (application rate 100 g/ha), 100%; in [9], 100%. Moreover, the pest or weed control at 100 g/ha in experiment [10] is 100%. In experiment [11], this compound returned a mortality at 4 ppm of 100%.
With `COc1nc([C@H](C)NC(=O)c2cc(OC(F)(F)F)cc(S(C)(=O)=O)c2)n(-c2ncc(Cl)cn2)n1` [I-77], the mortality at 100 g/ha in [2] and in experiment [8] was 100% throughout. Moreover, the mortality at 500 g/ha in [3] and in experiment [9] was 100% throughout. For the same compound, in experiment [10], the pest or weed control at 100 g/ha amounted to 100%.
Consider `COc1nc([C@H](C)NC(=O)c2cc(C(F)F)cc(S(C)(=O)=O)c2)n(-c2ncc(Cl)cn2)n1` [I-88], for which the mortality at 500 g/ha in experiment [3] and in [9] was 100% each time. Moreover, the pest or weed control at 100 g/ha in experiment [10] turned out to be 100%.
For the compound `C[C@H](NC(=O)c1cc(OC(F)(F)F)cc(S(=O)(=O)C2CC2)c1)c1nc(C2CC2)nn1-c1ncc(Cl)cn1` [I-93], the mortality at 100 g/ha in experiment [2] and in experiment [8] was 100% throughout. Further, the mortality at 500 g/ha in [3] worked out at 90%; in experiment [9] it was 100%. Further, the pest or weed control at 100 g/ha in experiment [10] was determined as 100%.
`C[C@H](NC(=O)c1cc(C(F)(F)F)cc(S(C)(=O)=O)c1)c1nc(Br)nn1-c1ncccn1` [I-95, N-[(1S)-1-(5-bromo-2-pyrimidin-2-yl-1,2,4-triazol-3-yl)ethyl]-3-methylsulfonyl-5-(trifluoromethyl)benzamide]: the mortality at 100 g/ha stood at 90% in experiment [2] and 100% in experiment [8]. Besides, in [3], the mortality at 500 g/ha was 100%. Further, in experiment [10], the pest or weed control at 100 g/ha was 100%.
As to `C[C@H](NC(=O)c1cc(C(F)(F)F)cc(S(C)(=O)=O)c1)c1nc(Cl)nn1-c1ncccn1` [I-96, N-[(1S)-1-(5-chloro-2-pyrimidin-2-yl-1,2,4-triazol-3-yl)ethyl]-3-methylsulfonyl-5-(trifluoromethyl)benzamide], the mortality at 500 g/ha in experiment [3] and in experiment [9] was 100% throughout. Also, in experiment [8], the mortality at 100 g/ha is 100%. The pest or weed control at 100 g/ha in [10] amounted to 100%.
Take `Cc1nc([C@H](C)NC(=O)c2csc(Cl)c2)n(-c2ccc(C#N)cn2)n1` [II-8]: the pest or weed control at 5 µg/cm2 in experiment [1] was 100%. In experiment [4], the pest or weed control at 4 pg is 80% and the pest or weed control at 0.02 mg worked out at 100%. Moreover, the mortality at 100 ppm in experiment [5] was 100%. Also, in [6], the mortality at 4 mg/m2 fell in the range of 80 to 100% and the mortality at 20 mg/m2 fell in the range of 80 to 100%. Moreover, in [7], the pest or weed control at 100 g/ha was found to be 100% and the pest or weed control at 500 g/ha came to 100%. Further, the mortality at 20 mg/m2 in [12] (surface concentration 20 mg/m^2, exposure 30 minutes) was 80 to 100%. In [8], the mortality at 100 g/ha came to 83% and the mortality at 500 g/ha is 100%. Also, in experiment [10], the pest or weed control at 100 g/ha worked out at 100% and the pest or weed control at 500 g/ha came out at 100%.
`C[C@H](NC(=O)c1csc(Cl)c1)c1ncnn1-c1ncccn1` [II-30]: the pest or weed control at 100 g/ha in experiment [13] (application rate 1 pg/cm^2 (=100 g/ha)) and in experiment [7] was 100% in each case. Moreover, in experiment [13] (application rate 5 μg/cm^2 (=500 g/ha)), the pest or weed control at 5 µg/cm2, 500 g/ha came to 100%. Also, the pest or weed control at 5 µg/cm2 in experiment [1] was determined as 90%. The compound further yielded a mortality at 500 g/ha in experiment [2] of 90%. Also, the pest or weed control at 4 pg in experiment [4] came to 100%. For the same compound, in [4], the pest or weed control at 0.02 mg amounted to 100%. For the same compound, the mortality at 100 ppm in [5] stood at 100%. For the same compound, the mortality at 4 mg/m2 was 80 to 100% in experiment [6] and 80 to 100% in experiment [12] (surface concentration 4 mg/m^2, exposure 30 minutes). Besides, the mortality at 20 mg/m2 in experiment [6] fell in the range of 80 to 100%. For the same compound, the pest or weed control at 500 g/ha in experiment [7] and in experiment [10] was 100% each time.

By mortality is commonly meant the share of the test organisms that died.
